“Also recorded” adds a separate entry of the source.
Columns and labels:
[1] = 90-day pharmacokinetic study after intra-articular injection in Beagles; assay type: in vivo; details: Beagle
Procedure: Pharmacokinetic assessment of R805. Pharmacokinetics were conducted in a canine model for over 90 days. Purpose-bred beagles with intact stifles were injected intra-articularly with 500 μL of physiological saline containing 0.25% carboxymethyl cellulose (CMC) and either 1 μg or 100 ng of […] (n=4 each). Synovial fluid and plasma were collected at d0, d3, d7, d14, d21, d31, d60 and d90 and analyzed by LC-MS/MS. Doses of 10 μg, 1 μg and 0.1 μg of R805 were utilized for the main experiment.

canine OA model = assay: Canine osteoarthritis model (medial meniscal release); assay type: in vivo, dog; details: for histological (OARSI) scores of joint sections, matrix catabolism: intra-articular injections at post-operative weeks 4 and 11
Procedure: Single-cell sequencing using 10× Genomics. Single cell samples were prepared using Next GEM Single Cell 5′ v2 (dual index) and Chip Kit (10× Genomics) according to the manufacturer's protocol. Briefly samples were FACS sorted using DAPI to select live cells followed by resuspension in 0.04% BSA-PBS. Nearly 1200 cells/μl were added to each well of the chip with a target cell recovery estimate of 10000 cells. Thereafter Gel bead-in Emulsions (GEMs) were generated using GemCode Single-Cell Instrument. GEMs were reverse transcribed, droplets were broken and single stranded cDNA was isolated. cDNAs were cleaned up with DynaBeads and amplified. Finally, cDNAs were ligated with adapters, post-ligation products were amplified, cleaned-up with SPRIselect and purified libraries were sequenced on Novaseq.
10× Sequencing data analysis. Raw sequencing reads were processed using Partek Flow Analysis Software (build version 10.0.21.0210). Briefly, raw reads were checked for their quality, trimmed and reads with an average base quality score per position>30 were considered for alignment. Trimmed reads were aligned to the dog genome version canFam3-Ensembl_v102 using STAR-2.6.1d with default parameters. Reads with alignment percentage >75% were deduplicated based on their unique molecular identifiers (UMIs). Reads mapping to the same chromosomal location with duplicate UMIs were removed. Thereafter ‘Knee’ plot was constructed using the cumulative fraction of reads/UMIs for all barcodes. Barcodes […] the cut-off defined by the location of the knee were assigned as true cell barcodes and quantified. Further noise filtration was done by removing cells having >5% mitochondrial counts and total read counts >24,000. Genes not expressed in any cell were also removed as an additional clean-up step. Cleaned-up reads were normalized using counts per million (CPM) method followed by log-transformation generating count matrices for each sample. Samples were batch-corrected on the basis of expressed genes and mitochondrial reads percent. Count matrices were used to visualize and explore the samples in further details by generating tSNE plots, a non-linear dimensional reduction technique. This algorithm learns the underlying manifold of the data and places similar cells together in a low-dimensional space. Gene ontology enrichment analysis for the differentially expressed genes was performed using DAVID Gene Functional Classification Tool ([http://]david.abcc.ncifcrf.gov; version 6.8). Dot plots were generated in R (v4.0.3) using ggplot2(v3.3.3).
Immunohistochemistry. Histological staining for was performed on wild type (WT) mice, F814 mice and all mice that underwent destabilization of the medial meniscus (DMM). Six weeks after surgery, mice were sacrificed and joints were fixed in 10% formalin, decalcified in 10% EDTA and embedded in paraffin. For rat model, 6 weeks after partial medial meniscectomy (PMM), rats were sacrificed and joints were fixed in 10% formalin, decalcified in 10% EDTA and embedded in paraffin. A total of three 8 μm thick sections were made at a 200 μm interval by coronal sectioning. For canine model, 4 and 16 weeks after medial meniscal release (MMR), dogs were sacrificed and joints were fixed in 10% formalin, decalcified in 10% EDTA and embedded in paraffin. No animals were excluded from analysis. A microtome (Leica) was used to cut 5-μm sections for joints. H&E staining was performed to assess morphology. Safranin O/Fast Green staining, immunohistochemistry for proteolytic enzymes and Osteoarthritis Research Society International (OARSI) scoring was performed as described (41, 42). For OARSI scoring, observers performing the analysis were blinded as whether the slides were from treated or control animals. The stained samples were visually observed using LSCM (Zeiss LSM710, Carl Zeiss, Germany).
Canine osteoarthritis model. […]

[2] = system: bearded dragon (Pogona vitticeps) amputated tail; assay: Lizard tail healing model; assay type: in vivo; details: 14 days post-amputation
Procedure: Lizard Tail Healing Model. Captive bred and raised bearded dragon lizards (Pogona vitticeps) were maintained at 25.5° C. with 65% humidity on a 12 hr light/12 hr dark schedule with UVB lamp (Zoo Med) treatment during daylight hours. Care and experimental use of lizards was conducted in accordance with Institutional Animal Care and Use Committee (IACUC). Lizard tails were amputated halfway along lengths with scalpels To systemically deplete macrophage populations, lizards received intraperitoneal (IP) injections of L-α-phoshatidylcholine/cholesterol liposomes containing clodronate (0.125 mg/g) as previously described (Londono et al. J Immunol Regen Med. 2020). Control animals were treated with liposomes containing PBS instead of clodronate. Lizards were treated with R805 drug via daily direct injection (1 pmol drug) into amputated tail stumps. Lizard tail samples were collected 14 days following original tail amputation. Collected tail samples were photographed using an Olympus SZX16 stereo microscope. Images were uploaded in ImageJ (NIH, Bethesda MD) and quantified using the measure command. For labeling of proliferating cell populations with 5-ethynyl-2′-deoxyuridine (EdU) (ThermoFisher Scientific), animals received IP injections of EdU (50 mg/kg) four hours prior to sample collection. Samples to be analyzed via histology were fixed overnight in 4% paraformaldehyde, decalcified for 3 weeks in 10% EDTA (pH 7.4), equilibrated to 30% sucrose, embedded in optimal cutting temperature compound (OCT, Tissue-Tek), crypsectioned at 16 μm thickness, mounted on glass slides, and stained with 4′,6-diamidino-2-phenylindole (DAPI). Samples were stained with Masson's trichrome (American Mastertech) according to the manufacturer's instructions or immunostained for CTSK (Abcam antibody ab19027, used at 1:1000). Images were captured with an Olympus CKX41 microscope outfitted with a Keyence BZ-X800 microscope, and the areas of EdU signal were quantified with ImageJ. Statistical analysis was performed using Prism 7 with one or two-way ANOVA with pairwise Tukey's multiple comparison test for data with multiple groups. A p-value of <0.05 was deemed to be statistically significant. All values and graphs are shown as mean±SD.

Structure (SMILES): Cc1ccc(-c2csc(NC(=O)c3ccccn3)n2)cc1 [Peptide R805]
- time that IC50 concentrations of R805 were maintained in the joint ([1]; 1 μg intra-articular injection): 3 weeks
- detection in systemic circulation ([1]; intra-articular injection, 90-day study): never detected in systemic circulation; also recorded: not detected in systemic circulation
- histological abnormalities of cartilage (canine OA model; 0.1 μg dose group (as in saline group)): focal partial- and full thickness cartilage erosions
- cortical outline of the medial tibial plateau (canine OA model; 10 ug and 1 ug doses): almost no change in the cortical outline
- bone mineral density (sclerosis) in medial compartment of the operated stifle, microCT (canine OA model; 10 and 1 μg groups): consistent absence of sclerosis
- scRNA-seq of synoviocytes: joint inflammatory milieu (canine OA model; R805-treated vs control dogs): biases the joint environment away from a chronic inflammatory identity following injury; also recorded: promotes an anti-inflammatory, anti-fibrotic milieu in an injured joint
- knee joint shape change from baseline (serial CT) (canine OA model; canine OA model): clearly controlled; also recorded: dose-dependent reduction in ectopic bone formation
- pain (Colorado Pain Scores) (canine OA model; canine OA model): minimal pain
- subchondral sclerosis / BMD in the contralateral, non-operated knee (canine OA model; canine OA model): did not develop subchondral sclerosis in the contralateral knee; also recorded: increased with decreasing dose of R805
- pain (Colorado Pain Scores) (canine OA model; canine OA model, listed as CX-011): profound effect on alleviating pain
- synovial membrane inflammation (canine OA model; high and middle dose groups): mild intimal hypertrophy with occasional subintimal mononuclear cell infiltration; also recorded: reduced by mid and high doses of R805
- lameness scores (canine OA model; high dose group): minimal pain (FIG. 5E) and lameness
- histological (OARSI) scores of joint sections, matrix catabolism (canine OA model): dramatically reduces the appearance of OA in rat and canine models; also recorded: incremental improvement in the histological scores as the R805 dose increased
- histological (OARSI) scores of joint sections, matrix catabolism (canine OA model; listed as CX-011): profound effect on alleviating pain and matrix catabolism
- synovial membrane inflammation (canine OA model; low dose (as in saline treated dogs)): profound increase in subintimal vasculature, new connective tissue and cellular infiltrate
- CTSK+ macrophage recruitment to amputation site [2]: exhibited CTSK+ macrophage populations that extended into new tissue areas distal to amputation planes
- proliferating EdU+ cells [2]: significantly higher numbers of proliferating EdU+ wound epithelium and periosteal cells
- tail tissue regrowth under macrophage depletion ([2]; R805 co-treated with clodronate liposomes): co-treatment with clodronate liposomes inhibited R805-induced tissue regrowth
- tail tissue regeneration (gross morphology, Masson's trichrome) ([2]; daily direct injection into amputated tail stump): resulted in tissue regeneration as evidenced by blastema-like structures; also recorded: enhances lizard tail regeneration in a macrophage-dependent manner

— patent US20240182526A1, “COMPOSITIONS AND METHODS FOR MODULTING INFLAMMATORY AND DEGENERATIVE DISORDER” (University of Southern California, priority 2021, published 2024)
